According to PubChem BioAssay (NCI):
Where “and” joins values, the source holds several entries; their conditions need not be identical. Equal entries are not always repeated.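 Grown in 96-well plates, cells were treated for 48 hours with each compound at five concentrations. Insufficient inhibition: endpoint recorded as highest concentration tested. GI50: concentration for 50% inhibition of growth. TGI: concentration producing complete growth inhibition.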

Test system: MDA-MB-468 breast
Test: NCI tumour cell line growth inhibition, 48 h

**Q.** Which results are given for `COc1ccc(-c2ccc(-c3ccc(C(=N)N)cn3)s2)cc1Cl`?
**A.** GI50: 1.57 µM; TGI: 3.15 µM

**Q.** Which GI50 does the source give for `Fc1ccc(-c2ncn(C3CCNCC3)c2-c2ccnc(Oc3cccc(F)c3)n2)cc1` here?
**A.** 2.61 µM

**Q.** What about the TGI of the same compound?
**A.** 6.82 µM

**Q.** Which results are given for `Oc1ccccc1-n1c(-c2ccccc2)ccc1-c1ccccc1`?
**A.** GI50: 3.3 µM; TGI: 15.7 µM

**Q.** For `CCCC[C@@H](COC(=O)N(Cc1cccs1)Cc1cccs1)NC(=O)N[C@@H](CC(=O)OC)c1ccc2c(c1)OCO2`, which GI50 is on record?
**A.** > 100 µM

**Q.** What about the TGI of the same compound?
**A.** > 100 µM

**Q.** How did the GI50 turn out when `C[Se]C(=O)CC1=C2C=C(F)C=CC2/C(=C\c2ccc(S(C)=O)cc2)C1C` (configuration not stated) was run?
**A.** 0.134 µM

**Q.** What about the TGI of the same compound?
**A.** 1.41 µM

**Q.** How did the GI50 turn out when `CC#CC(=O)N1CCC[C@H]1c1nc(-c2ccc(C(=O)Nc3ccccn3)cc2)c2c(N)nccn12` was run?
**A.** 19 µM

**Q.** What about the TGI of the same compound?
**A.** > 76 µM

**Q.** Which results are given for `O=C(CCN1CCCC1)Nc1ccc2c(NCCCc3ccccc3)c3ccccc3nc2c1`?
**A.** GI50: 0.477 µM; TGI: 1.7 µM

**Q.** For `CC[C@H](C)[C@H](NC(=O)C12C3C4C1C1C2C3C41NC(C)=O)C(=O)N(C)[C@H](C[C@@H](OC(C)=O)c1nc(C(=O)N[C@@H](Cc2ccccc2)C[C@H](C)C(=O)OC)cs1)C(C)C` (some centres not stated), which GI50 is on record?
**A.** 0.081 µM

**Q.** What about the TGI of the same compound?
**A.** > 3.98 µM

**Q.** How did the GI50 turn out when `N#Cc1nc(-c2ccccc2)oc1S(=O)(=O)N1CCOCC1` was run?
**A.** 2.21 µM

**Q.** And the TGI?
**A.** 6.21 µM

**Q.** Which GI50 does the source give for `Oc1c(CN2CCCC2)cc(COCc2ccccc2)c2cccnc12` here?
**A.** 2.3 µM

**Q.** What about the TGI of the same compound?
**A.** 6.14 µM

**Q.** With `COc1ccc(/C=C(\C#N)c2cc3ccccc3n2C)cc1` as the compound, how does the GI50 read?
**A.** 0.273 µM

**Q.** What about the TGI of the same compound?
**A.** 1.99 µM

**Q.** For `Cn1c(=O)c2[nH]c(COc3ccc(C(C)(C)C)cc3)nc2n(C)c1=O`, which GI50 is on record?
**A.** 8.08 µM

**Q.** And the TGI?
**A.** 72.3 µM

**Q.** What does the source list for `CCS/C(Nc1ccccc1)=C(\C#N)C(=O)Nc1ccc(OC)cc1`?
**A.** GI50: 1.39 µM; TGI: 7.51 µM

**Q.** For `c1ccc(-c2nc(N3CCNCC3)c3nc(-c4ccccc4)oc3n2)cc1`, which GI50 is on record?
**A.** 1.93 µM

**Q.** What about the TGI of the same compound?
**A.** 3.66 µM

**Q.** For `O=Nc1c(O)ccc2ccccc12`, which GI50 is on record?
**A.** 4.51 µM

**Q.** What about the TGI of the same compound?
**A.** 25.3 µM

**Q.** How did the GI50 turn out when `C#Cc1ccc(NC(=O)c2ccc(/C=C/C(=O)c3nccn3C)cc2)cc1` was run?
**A.** 0.4 µM

**Q.** And the TGI?
**A.** 0.918 µM

**Q.** For `O=C1/C(=C/c2cccs2)CCC/C1=C\c1cccs1`, which GI50 is on record?
**A.** 0.577 µM

**Q.** And the TGI?
**A.** 14.9 µM

**Q.** What does the source list for `Cn1ccnc1C(=O)/C=C/c1ccc(C(=O)Nc2nc3ccccc3[nH]2)cc1`?
**A.** GI50: 1.29 µM; TGI: > 25 µM

**Q.** Which results are given for `COc1ccccc1-n1c(SCc2cc(OC)c(OC)c(OC)c2)nc2ccc(Cl)cc2c1=O`?
**A.** GI50: 0.895 µM; TGI: 8.99 µM

**Q.** With `O=C(/C=C\c1ccnc2ccccc12)c1ccc([N+](=O)[O-])cc1` as the compound, how does the GI50 read?
**A.** 1.04 µM

**Q.** And the TGI?
**A.** 9.09 µM

**Q.** How did the GI50 turn out when `CC(C)(C)CC(C)(C)c1ccc(OCCOCCSC(=N)N)cc1` was run?
**A.** 1.59 µM

**Q.** And the TGI?
**A.** 3.32 µM

**Q.** With `COc1ccc(/C=C\c2cc(OC)c(OC)c(OC)c2)c(NS(=O)(=O)c2ccc(C)cc2)c1O` as the compound, how does the GI50 read?
**A.** 0.0261 µM

**Q.** And the TGI?
**A.** 0.711 µM

**Q.** How did the GI50 turn out when `COc1ccc(/C=C2\N=C3SC=C(N)N3C2=O)cc1` was run?
**A.** 0.291 µM

**Q.** And the TGI?
**A.** 1.66 µM

**Q.** Which results are given for `CC/C=C\CCC/C=C1/C(=O)C=C[C@@H]1C/C=C\CCCC(=O)O`?
**A.** GI50: 4.61 µM; TGI: 18.7 µM

**Q.** Which results are given for `CC(=O)N1CC(F)(F)c2c(Sc3ncc(N4CCC5(CC4)COC[C@H]5N)nc3N)cccc21`?
**A.** GI50: 14.8 µM; TGI: 50.5 µM

**Q.** With `COC(=O)CCC1=C(C)c2cc3[n-]c(cc4nc(cc5[n-]c(cc1n2)c(CCC(=O)OC)c5C)C=C4C)cc3C.[Cd+2]` as the compound, how does the GI50 read?
**A.** 3.29 µM

**Q.** And the TGI?
**A.** 12 µM

**Q.** With `CCSC1=CC(=O)c2ccccc2C1=O` as the compound, how does the GI50 read?
**A.** 0.18 µM

**Q.** And the TGI?
**A.** 0.417 µM

**Q.** Which GI50 does the source give for `O=c1[nH]c(-c2ccc(C(F)(F)F)cc2)nc2c1CSCC2` here?
**A.** 36.1 µM

**Q.** What about the TGI of the same compound?
**A.** > 100 µM

**Q.** Which GI50 does the source give for `O=C(Nc1cc(Cl)cc(Cl)c1)Nc1ccc2oc(=O)ccc2c1` here?
**A.** 2.81 µM

**Q.** What about the TGI of the same compound?
**A.** 7.45 µM

**Q.** Which GI50 does the source give for `O=C(/C=C/c1ccco1)Nc1ncc(Cc2ccc(F)cc2)s1` here?
**A.** 0.142 µM

**Q.** What about the TGI of the same compound?
**A.** > 25.2 µM

**Q.** `C[C@@H]1CC[C@@]2(OC1)O[C@H]1C[C@H]3[C@@H]4CC=C5C[C@@H](O[C@@H]6O[C@H](CO)[C@@H](O[C@@H]7O[C@@H](CO)[C@H](O)[C@H]7O)[C@H](O)[C@H]6O[C@@H]6O[C@@H](C)[C@H](O)[C@@H](O)[C@H]6O)CC[C@]5(C)[C@H]4CC[C@]3(C)[C@H]1[C@@H]2C` was tested. Which GI50 did it give?
**A.** 0.361 µM

**Q.** What about the TGI of the same compound?
**A.** 1.45 µM

**Q.** `CN(Cc1cnc2nc(N)nc(N)c2n1)c1ccc(C(=O)NC(CCC(=O)O)C(=O)O)cc1` (configuration not stated) was tested. Which GI50 did it give?
**A.** 0.112 µM

**Q.** What about the TGI of the same compound?
**A.** > 100 µM

**Q.** What does the source list for `COc1cc(C2C(C#N)=C(N)OC3=C2C(=O)c2ccccc2C3=O)cc(OC)c1OC` (configuration not stated)?
**A.** GI50: 2.26 µM; TGI: 6.64 µM

**Q.** Which GI50 does the source give for `COc1ccc(C(O)c2cc3c(N)c(C(=O)Nc4cccc(Br)c4)sc3nc2C)cc1` (configuration not stated) here?
**A.** 0.0969 µM

**Q.** Which GI50 does the source give for `Cc1nc(NC(=O)N2CCC[C@H]2C(N)=O)sc1-c1ccnc(C(C)(C)C(F)(F)F)c1` here?
**A.** 0.309 µM and 0.596 µM

**Q.** And the TGI?
**A.** 6.97 µM and > 10 µM

**Q.** Which results are given for `COc1ccc2c3c(c(OCCCN(C)C)nc2c1)-c1ccc(Cl)cc1C3=O`?
**A.** GI50: 4.7 µM; TGI: 19.5 µM

**Q.** What does the source list for `C#Cc1nc(/C=C\CCCCCCC(=O)NO)cs1`?
**A.** GI50: 1.19 µM; TGI: 3.12 µM

**Q.** `CN(C)c1ccc(/C=C/c2ccnc3ccccc23)cc1` was tested. Which GI50 did it give?
**A.** 0.298 µM

**Q.** What about the TGI of the same compound?
**A.** 16.9 µM

**Q.** With `FC(F)(F)c1ccc(-c2cnc(Br)nc2NC2CCCCCC2)cc1` as the compound, how does the GI50 read?
**A.** 24.9 µM

**Q.** What about the TGI of the same compound?
**A.** > 100 µM

**Q.** Which results are given for `CCNCCNc1cc(-c2ccc(F)cc2)c(C#N)c2nc3ccccc3n12`?
**A.** GI50: 1.85 µM; TGI: 4.12 µM

**Q.** How did the GI50 turn out when `COc1ccc2c(c1)OC13Oc4cc(OC)ccc4C=C1CCCC3=C2` was run?
**A.** > 100 µM

**Q.** And the TGI?
**A.** > 100 µM

**Q.** For `NC(CSC(c1ccccc1)(c1ccccc1)c1ccc2ccccc2c1)C(=O)O` (configuration not stated), which GI50 is on record?
**A.** 0.045 µM

**Q.** And the TGI?
**A.** 22.3 µM

**Q.** How did the GI50 turn out when `COc1ccc(NC(=O)c2cc(OC)c(OC)c(OC)c2)cc1O` was run?
**A.** 0.861 µM

**Q.** And the TGI?
**A.** 15.8 µM

**Q.** `C=C1C(C)C2C(Cc3ccccc3)NC(=O)C23C(OC(C)=O)/C=C/C(C)(O)CC(C)C/C=C/C3C1O` (configuration not stated) was tested. Which GI50 did it give?
**A.** 0.199 µM

**Q.** What about the TGI of the same compound?
**A.** > 100 µM
